In patent publication US11420969B2 (Exonate Limited, priority 2017, dated 2022):
Like-named read-outs stand apart in the source and are kept apart here.

Columns and labels:
[1] = biological target: T1, CYP1A2 (Homo sapiens, UniProt P05177); experiment: CYP inhibition assay, human liver microsomes, substrate tacrine; type: in vitro ADME
T1 construct: from tissue; host or cells: human liver microsomes
T1 sequence (P05177 1-516): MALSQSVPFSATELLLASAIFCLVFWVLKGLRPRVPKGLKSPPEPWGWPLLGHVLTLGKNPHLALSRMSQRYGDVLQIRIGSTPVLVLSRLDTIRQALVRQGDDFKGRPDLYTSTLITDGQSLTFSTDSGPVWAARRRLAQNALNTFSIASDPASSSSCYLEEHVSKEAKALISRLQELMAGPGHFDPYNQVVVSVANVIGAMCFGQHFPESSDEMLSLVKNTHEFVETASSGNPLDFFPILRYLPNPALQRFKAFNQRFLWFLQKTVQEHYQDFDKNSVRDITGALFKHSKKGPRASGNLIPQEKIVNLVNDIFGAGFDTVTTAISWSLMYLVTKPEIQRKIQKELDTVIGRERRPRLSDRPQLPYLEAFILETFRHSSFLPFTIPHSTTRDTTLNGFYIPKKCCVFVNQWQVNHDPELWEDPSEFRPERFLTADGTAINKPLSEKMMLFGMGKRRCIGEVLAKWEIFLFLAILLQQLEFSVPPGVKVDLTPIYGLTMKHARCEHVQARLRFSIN
Method: (§1) 2 μL of test compound/Positive Inhibitor working solutions is then added to the reaction plate (2 μL/well). For control, 2 μL of Acetonitrile (ACN) containing DMSO (without inhibitor) is added to the reaction plate. 20 μL of substrate pool is added to all the wells of the reaction plate. The samples are mixed in a vortexer and pre-incubated at 37° C. for 20 min. The NADPH solution is pre-warmed at 37° C. for 5 min. 20 μL of pre-warmed NADPH solution is added to the reaction plate and then incubated at 37° C. for 10 min. The reaction is terminated by adding cold ACN (200 μL/well) to the reaction mixture and centrifuging at 4,000 rpm for 20 minutes. After centrifugation, supernatant is separated and analyzed by LC-MS/MS.
(§2) % inhibition and IC50 are calculated using Graphpad Prism software.

[2] = biological target: T2, CYP2C9 (Homo sapiens, UniProt P11712); experiment: CYP inhibition assay, human liver microsomes, substrate diclofenac; type: in vitro ADME
T2 construct: from tissue; host or cells: human liver microsomes
Method: as §1, §2

[3] = biological target: T3, CYP2C19 (Homo sapiens, UniProt P33261); experiment: CYP inhibition assay, human liver microsomes, substrate S-mephenytoin; type: in vitro ADME
T3 construct: from tissue; host or cells: human liver microsomes
Method: as §1, §2

[4] = biological target: T4, CYP2D6 (Homo sapiens, UniProt P10635); experiment: biochemical; type: in vitro ADME
T4 construct: from tissue; host or cells: human liver microsomes
Method: 158 μL of Human Liver Microsomes working stock solution is added to a reaction plate (0.253 mg/mL, 158 μL/well). 2 μL of test compound/Positive Inhibitor working solutions is then added to the reaction plate (2 μL/well). For control, 2 μL of Acetonitrile (ACN) containing DMSO (without inhibitor) is added to the reaction plate. 20 μL of substrate pool is added to all the wells of the reaction plate. The samples are mixed in a vortexer and pre-incubated at 37° C. for 20 min. The NADPH solution is pre-warmed at 37° C. for 5 min. 20 μL of pre-warmed NADPH solution is added to the reaction plate and then incubated at 37° C. for 10 min. The reaction is terminated by adding cold ACN (200 μL/well) to the reaction mixture and centrifuging at 4,000 rpm for 20 minutes. After centrifugation, supernatant is separated and analyzed by LC-MS/MS.
as §2

[5] = biological target: T5, CYP3A4 (Homo sapiens, UniProt P08684); experiment: CYP inhibition assay, human liver microsomes, substrate midazolam; type: in vitro ADME
T5 construct: from tissue; host or cells: human liver microsomes
Method: as §1, §2

[6] = biological target: SRPK1 (Homo sapiens, UniProt Q96SB4); experiment: In vitro SRPK1 assay (Kinase-Glo); type: biochemical
[7] = human liver microsomes, 10 min incubation, LC-MS/MS, read-out: CYP Inhibition Activity (IC50/nM) CYP1A2
[8] = human liver microsomes, 10 min incubation, LC-MS/MS, read-out: CYP Inhibition Activity (IC50/nM) CYP2C9
[9] = human liver microsomes, 10 min incubation, LC-MS/MS, read-out: CYP Inhibition Activity (IC50/nM) CYP2C19
[10] = human liver microsomes, 10 min incubation, LC-MS/MS, read-out: CYP Inhibition Activity (IC50/nM) CYP3A4

T4 sequence (P10635 whole entry): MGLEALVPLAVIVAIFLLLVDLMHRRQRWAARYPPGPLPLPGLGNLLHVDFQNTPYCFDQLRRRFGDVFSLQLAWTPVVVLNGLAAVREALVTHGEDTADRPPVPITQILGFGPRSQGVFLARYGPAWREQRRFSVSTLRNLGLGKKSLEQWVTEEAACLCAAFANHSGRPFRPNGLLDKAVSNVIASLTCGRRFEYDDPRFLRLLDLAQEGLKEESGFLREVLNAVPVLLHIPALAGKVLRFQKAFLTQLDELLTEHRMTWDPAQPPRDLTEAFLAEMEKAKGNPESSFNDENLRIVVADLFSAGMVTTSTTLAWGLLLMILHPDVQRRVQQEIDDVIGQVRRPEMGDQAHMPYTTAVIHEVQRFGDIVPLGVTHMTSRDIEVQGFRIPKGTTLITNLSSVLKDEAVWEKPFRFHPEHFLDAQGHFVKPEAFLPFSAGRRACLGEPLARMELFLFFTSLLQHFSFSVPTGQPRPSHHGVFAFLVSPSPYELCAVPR
T5 sequence (P08684 whole entry): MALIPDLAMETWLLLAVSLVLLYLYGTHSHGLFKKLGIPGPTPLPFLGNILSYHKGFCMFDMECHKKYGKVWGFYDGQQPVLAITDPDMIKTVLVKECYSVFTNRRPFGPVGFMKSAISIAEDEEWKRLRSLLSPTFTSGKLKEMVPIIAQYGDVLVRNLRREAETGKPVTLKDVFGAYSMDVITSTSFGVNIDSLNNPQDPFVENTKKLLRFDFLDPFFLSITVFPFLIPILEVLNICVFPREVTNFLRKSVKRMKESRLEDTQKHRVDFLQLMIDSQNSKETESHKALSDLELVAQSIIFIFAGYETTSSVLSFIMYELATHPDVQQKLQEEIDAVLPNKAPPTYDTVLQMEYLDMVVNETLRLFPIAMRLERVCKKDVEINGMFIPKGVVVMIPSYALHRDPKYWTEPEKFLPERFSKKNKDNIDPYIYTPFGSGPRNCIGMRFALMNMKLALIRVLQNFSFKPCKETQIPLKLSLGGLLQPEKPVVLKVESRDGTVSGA
T3 sequence (P33261 whole entry): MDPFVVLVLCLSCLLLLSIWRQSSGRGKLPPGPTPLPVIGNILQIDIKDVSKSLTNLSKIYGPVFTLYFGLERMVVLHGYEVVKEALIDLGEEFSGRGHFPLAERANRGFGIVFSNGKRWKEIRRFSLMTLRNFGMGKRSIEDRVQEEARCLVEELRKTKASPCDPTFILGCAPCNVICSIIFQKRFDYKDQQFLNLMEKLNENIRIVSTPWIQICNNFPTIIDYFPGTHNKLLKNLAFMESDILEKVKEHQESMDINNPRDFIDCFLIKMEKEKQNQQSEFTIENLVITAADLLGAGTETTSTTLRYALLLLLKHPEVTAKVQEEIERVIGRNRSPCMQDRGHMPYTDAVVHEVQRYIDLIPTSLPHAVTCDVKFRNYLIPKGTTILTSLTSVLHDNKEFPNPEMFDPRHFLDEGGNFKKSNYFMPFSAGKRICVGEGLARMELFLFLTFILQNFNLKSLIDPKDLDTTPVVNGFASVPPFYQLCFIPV
Chain of SRPK1 (Q96SB4 whole entry, species assumed): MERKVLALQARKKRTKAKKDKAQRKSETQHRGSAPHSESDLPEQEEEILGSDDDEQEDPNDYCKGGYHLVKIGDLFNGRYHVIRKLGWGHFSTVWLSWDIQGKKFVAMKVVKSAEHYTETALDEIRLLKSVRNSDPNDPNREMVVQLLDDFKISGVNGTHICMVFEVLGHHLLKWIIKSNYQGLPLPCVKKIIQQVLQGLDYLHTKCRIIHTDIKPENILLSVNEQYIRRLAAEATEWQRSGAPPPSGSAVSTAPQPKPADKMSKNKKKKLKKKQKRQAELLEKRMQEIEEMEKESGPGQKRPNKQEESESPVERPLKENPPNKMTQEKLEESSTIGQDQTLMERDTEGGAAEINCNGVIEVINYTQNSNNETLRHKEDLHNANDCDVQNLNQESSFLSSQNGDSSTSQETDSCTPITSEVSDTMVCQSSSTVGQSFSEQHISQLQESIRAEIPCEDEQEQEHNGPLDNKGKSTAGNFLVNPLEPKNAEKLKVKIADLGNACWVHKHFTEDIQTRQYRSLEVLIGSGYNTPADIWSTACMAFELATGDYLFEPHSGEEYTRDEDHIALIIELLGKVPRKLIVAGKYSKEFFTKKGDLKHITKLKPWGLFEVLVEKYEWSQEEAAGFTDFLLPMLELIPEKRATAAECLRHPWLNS
T2 sequence (P11712 whole entry): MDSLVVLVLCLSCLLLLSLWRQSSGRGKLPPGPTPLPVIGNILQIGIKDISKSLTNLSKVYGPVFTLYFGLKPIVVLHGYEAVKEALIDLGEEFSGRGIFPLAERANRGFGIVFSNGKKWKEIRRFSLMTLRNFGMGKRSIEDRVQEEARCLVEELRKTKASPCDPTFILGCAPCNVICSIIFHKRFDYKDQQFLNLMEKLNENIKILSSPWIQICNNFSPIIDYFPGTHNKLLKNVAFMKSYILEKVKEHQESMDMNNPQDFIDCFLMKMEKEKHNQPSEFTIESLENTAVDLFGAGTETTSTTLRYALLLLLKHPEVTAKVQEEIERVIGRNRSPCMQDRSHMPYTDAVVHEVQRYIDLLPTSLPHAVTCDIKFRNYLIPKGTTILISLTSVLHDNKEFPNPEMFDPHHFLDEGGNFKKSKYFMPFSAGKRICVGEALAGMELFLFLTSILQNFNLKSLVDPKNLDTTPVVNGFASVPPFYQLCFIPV

Compound | IC50 [6] [nM] | IC50 [1, 7] [nM] | IC50 [2, 8] [nM] | IC50 [3, 9] [nM] | IC50 [4] [nM] | IC50 [5, 10] [nM] | further results
5-(pyridin-4-yl)-N-(2-(5-(thiazol-2-ylmethyl)piperazin-1-yl)-5-(trifluoromethyl)phenyl)furan-2-carboxamide [Reference Example 5, reference compound] | – | – | – | – | – | – | IC50 ([1]; microsomes): 15200 nM; IC50 ([2]; microsomes): 250 nM; IC50 ([3]; microsomes): 230 nM; IC50 ([4]; microsomes): 200 nM; IC50 ([5]; microsomes): 610 nM
CC1(O)CCCN(c2ccc(C(F)(F)F)cc2NC(=O)c2ccc(-c3ccncc3)o2)CC1 (racemic) [Example 37, N-(2-(4-hydroxy-4-methylazepan-1-yl)-5-(trifluoromethyl)phenyl)-5-(pyridin-4-yl)furan-2-carboxamide] | 17 | 24100 | 610 | 1230 | 240 | 960 | –
O=C(Nc1cc(C(F)(F)F)ccc1N1CCC(C(=O)O)CC1)c1ccccn1 [Example 30, 1-(2-(picolinamido)-4-(trifluoromethyl)phenyl)-piperidine-4-carboxylic acid] | 76 | – | – | – | – | – | –
O=C(Nc1cc(C(F)(F)F)ccc1N1CCC(CO)CC1)c1ccccn1 [Example 31, N-(2-(4-(hydroxymethyl)piperidin-1-yl)-5-(trifluoromethyl)phenyl)picolinamide] | 41 | – | – | – | – | – | –
O=C(Nc1cc(C(F)(F)F)ccc1N1CCN(Cc2ccccn2)CC1)c1ccc(-c2ccncc2)o1 [Reference Example 1, reference compound] | – | > 30000 | – | 230 | – | 310 | IC50 [2]: 170 nM; IC50 ([4]; human liver microsomes, 10 min incubation, LC-MS/MS, read-out: CYP Inhibition Activity (IC50/nM) CYP2D6): 740 nM

Second part, led by results:

IC50 [6] [nM] | IC50 [1, 7] [nM] | IC50 [2, 8] [nM] | IC50 [3, 9] [nM] | IC50 [4] [nM] | IC50 [5, 10] [nM] | Compound | further results
35 | 17600 | 11500 | – | > 30000 | 18300 | CC1(O)CCCN(c2ccc(C3CC3)cc2NC(=O)c2ccc(-c3ccncc3)o2)CC1 (racemic) [Example 39, N-(5-cyclopropyl-2-(4-hydroxy-4-methylazepan-1-yl)phenyl)-5-(pyridin-4-yl)-furan-2-carboxamide] | –
3.4 | – | – | – | – | – | O=C(Nc1cc(C(F)(F)F)ccc1N1CCCC(O)CC1)c1ccccn1 (racemic) [Example 43, N-(2-(4-hydroxyazepan-1-yl)-5-(trifluoromethyl)-phenyl)picolinamide] | –
2.6 | > 30000 | 23000 | – | 5010 | 21200 | CC1(CN)CCN(c2ccc(C(F)(F)F)cc2NC(=O)c2ccc(C3CCOCC3)o2)CC1 [Example 81, N-(2-(4-(aminomethyl)-4-methylpiperidin-1-yl)-5-(trifluoromethyl)phenyl)-5-(tetrahydro-2H-pyran-4-yl)furan-2-carboxamide] | –
– | 21800 | 610 | 690 | 260 | 1180 | O=C(Nc1cc(C(F)(F)F)ccc1N1CCN(Cc2ccco2)CC1)c1ccc(-c2ccncc2)o1 [Reference Example 2, N-(2-(4-(furan-2-ylmethyl)piperazin-1-yl)-5-(trifluoromethyl)phenyl)-5-(pyridin-4-yl)furan-2-carboxamide, reference compound] | –
– | > 30000 | 230 | 610 | 7080 | 4160 | O=C(Nc1cc(C(F)(F)F)ccc1N1CCN(Cc2cc[nH]n2)CC1)c1ccc(C2CCOCC2)o1 [Reference Example 3, N-(2-(4-((1H-pyrazol-3-yl)methyl)piperazin-1-yl)-5-(trifluoromethyl)-phenyl)-5-(tetrahydro-2H-pyran-4-yl)furan-2-carboxamide, reference compound] | –
– | > 30000 | 170 | 290 | 550 | 830 | O=C(Nc1cc(C(F)(F)F)ccc1N1CCN(Cc2cocn2)CC1)c1ccc(-c2ccncc2)o1 [Reference Example 4, N-(2-(4-(oxazol-4-ylmethyl)piperazin-1-yl)-5-(trifluoromethyl)phenyl)-5-(pyridin-4-yl)furan-2-carboxamide, reference compound] | –
